Broadly, the melting point is the temperature of the solid-liquid transition. In general, inhibition refers to the percentage by which the read-out fell short of the control.

Among the data in patent US6458788B1, “4-hydroxycinnoline-3-carboxyamides as antiviral agents” (Pharmacia & Upjohn Company, priority 2000, dated 2002) are melting point and inhibition values, retold here.

One data set concerns the target T1, HCMV polymerase (Human cytomegalovirus, UniProt P08546).
T1 construct: made in house; host or cells: recombinant baculovirus-infected SF-9 cells
The experiment in a line: HCMV polymerase scintillation proximity assay (modified version). The data set is classed as biochemical. The settings on record: at a concentration of 20 μM; read-out: percent inhibition of the viral polymerase, HCMV. The procedure: The HCMV polymerase assay is performed using a scintillation proximity assay (SPA) as described in several references, such as N. D. Cook, et al., Pharmaceutical Manufacturing International, pages 49-53 (1992); K. Takeuchi, Laboratory Practice, September issue (1992); U.S. Pat. No. 4,568,649 (1986); which are incorporated by reference herein. Reactions are performed in 96-well plates. The assay is conducted in 100 μl volume with 5.4 mM HEPES (pH 7.5), 11.7 mM KCl, 4.5 mM MgCl2, 0.36 mg/ml BSA, and 90 nM ^3H-dTTP. Assays are run with and without CHAPS, (3-[(3-cholamidopropyl)-dimethylammonio]-1-propane-sulfonate) at a final concentration of 2 mM. HCMV polymerase is diluted in enzyme dilution buffer containing 50% glycerol, 250 mM NaCl, 10 mM HEPES (pH 7.5), 100 μg/ml BSA, and 0.01% sodium azide. The HCMV polymerase, which is expressed in recombinant baculovirus-infected SF-9 cells and purified according to literature procedures, is added at 10% (or 10 μl) of the final reaction volume, i.e., 100 μl. Compounds are diluted in 50% DMSO and 10 μl are added to each well. Control wells contain an equivalent concentration of DMSO. Unless noted otherwise, reactions are initiated via the addition of 6 nM biotinylated poly(dA)-oligo(dT) template/primer to reaction mixtures containing the enzyme, substrate, and compounds of interest. Plates are incubated in a 25° C. or 37° C. H2O bath and terminated via the addition of 40 μl/reaction of 0.5 M EDTA (pH 8) per well. Reactions are terminated within the time-frame during which substrate incorporation is linear and varied depending upon the enzyme and conditions used, i.e., 30 min. for HCMV polymerase. Ten μl of streptavidin-SPA beads (20 mg/ml in PBS/10% glycerol) are added following termination of the reaction. Plates are incubated 10 min. at 37° C., then equilibrated to room temperature, and counted on a Packard Topcount. Linear regressions are performed and IC50's are calculated using computer software.
A modified version of the above HCMV polymerase assay is performed as described above, but with the following changes: Compounds are diluted in 100% DMSO until final dilution into assay buffer. In the previous assay, compounds are diluted in 50% DMSO. 4.5 mM dithiotherotol (DTT) is added to the polymerase buffer. […] All results are listed as the percent inhibition of the viral polymerase at a concentration of 20 μM. In Table 1, the term “nd” refers to activity data not determined.

Another data set has as its target VZV polymerase (Varicella-zoster virus, UniProt P09252). The experiment in a line: VZV polymerase assay (Table 1, viral polymerase inhibition). The settings on record: at a concentration of 20 μM; read-out: percent inhibition of the viral polymerase, VZV. Format: biochemical. The procedure: The HCMV polymerase assay is performed using a scintillation proximity assay (SPA) as described in several references, such as N. D. Cook, et al., Pharmaceutical Manufacturing International, pages 49-53 (1992); K. Takeuchi, Laboratory Practice, September issue (1992); U.S. Pat. No. 4,568,649 (1986); which are incorporated by reference herein. Reactions are performed in 96-well plates. The assay is conducted in 100 μl volume with 5.4 mM HEPES (pH 7.5), 11.7 mM KCl, 4.5 mM MgCl2, 0.36 mg/ml BSA, and 90 nM ^3H-dTTP. Assays are run with and without CHAPS, (3-[(3-cholamidopropyl)-dimethylammonio]-1-propane-sulfonate) at a final concentration of 2 mM. HCMV polymerase is diluted in enzyme dilution buffer containing 50% glycerol, 250 mM NaCl, 10 mM HEPES (pH 7.5), 100 μg/ml BSA, and 0.01% sodium azide. […] Plates are incubated 10 min. at 37° C., then equilibrated to room temperature, and counted on a Packard Topcount. Linear regressions are performed and IC50's are calculated using computer software.
A modified version of the above HCMV polymerase assay is performed as described above, but with the following changes: Compounds are diluted in 100% DMSO until final dilution into assay buffer. […] In Table 1, the term “nd” refers to activity data not determined.

The next data set addresses HSV polymerase (Human herpesvirus 1, UniProt P04293). Kind of data set: HSV polymerase assay (Table 1, viral polymerase inhibition). Particulars: at a concentration of 20 μM; read-out: percent inhibition of the viral polymerase, HSV. Format: biochemical.

Bounds are passed on as bounds.

T1 sequence (P08546 whole entry): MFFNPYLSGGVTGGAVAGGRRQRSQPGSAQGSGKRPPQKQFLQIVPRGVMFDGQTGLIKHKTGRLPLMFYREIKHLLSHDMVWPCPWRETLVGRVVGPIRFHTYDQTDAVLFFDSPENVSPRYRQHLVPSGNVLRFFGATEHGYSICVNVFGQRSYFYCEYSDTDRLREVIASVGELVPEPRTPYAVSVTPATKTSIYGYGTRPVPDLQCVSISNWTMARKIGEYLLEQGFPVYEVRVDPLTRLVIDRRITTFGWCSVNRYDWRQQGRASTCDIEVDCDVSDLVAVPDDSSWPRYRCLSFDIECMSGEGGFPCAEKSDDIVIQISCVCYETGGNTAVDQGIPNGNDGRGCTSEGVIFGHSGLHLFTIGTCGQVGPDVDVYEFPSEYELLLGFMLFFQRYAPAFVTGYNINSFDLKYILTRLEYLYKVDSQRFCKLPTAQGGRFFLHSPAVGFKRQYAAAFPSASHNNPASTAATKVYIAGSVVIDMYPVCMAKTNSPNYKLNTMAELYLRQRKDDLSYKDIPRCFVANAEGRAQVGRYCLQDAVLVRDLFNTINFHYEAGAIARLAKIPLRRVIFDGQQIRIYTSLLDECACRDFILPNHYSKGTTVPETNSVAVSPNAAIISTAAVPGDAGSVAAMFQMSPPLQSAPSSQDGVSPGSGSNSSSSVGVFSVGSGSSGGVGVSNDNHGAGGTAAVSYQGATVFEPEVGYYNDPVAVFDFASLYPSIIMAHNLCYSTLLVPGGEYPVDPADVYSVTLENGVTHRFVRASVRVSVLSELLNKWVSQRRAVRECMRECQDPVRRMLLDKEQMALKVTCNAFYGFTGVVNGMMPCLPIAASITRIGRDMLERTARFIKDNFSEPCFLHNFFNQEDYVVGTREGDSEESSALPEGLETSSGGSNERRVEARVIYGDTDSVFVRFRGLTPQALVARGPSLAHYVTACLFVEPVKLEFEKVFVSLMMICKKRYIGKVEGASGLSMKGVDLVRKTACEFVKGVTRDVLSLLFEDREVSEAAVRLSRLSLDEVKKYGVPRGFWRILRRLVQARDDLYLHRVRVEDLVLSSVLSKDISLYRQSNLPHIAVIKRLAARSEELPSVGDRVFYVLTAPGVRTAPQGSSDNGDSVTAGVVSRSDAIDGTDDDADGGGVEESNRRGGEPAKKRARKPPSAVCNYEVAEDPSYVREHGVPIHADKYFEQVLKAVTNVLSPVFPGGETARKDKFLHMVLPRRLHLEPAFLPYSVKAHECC
Sequence of VZV polymerase (P09252 whole entry): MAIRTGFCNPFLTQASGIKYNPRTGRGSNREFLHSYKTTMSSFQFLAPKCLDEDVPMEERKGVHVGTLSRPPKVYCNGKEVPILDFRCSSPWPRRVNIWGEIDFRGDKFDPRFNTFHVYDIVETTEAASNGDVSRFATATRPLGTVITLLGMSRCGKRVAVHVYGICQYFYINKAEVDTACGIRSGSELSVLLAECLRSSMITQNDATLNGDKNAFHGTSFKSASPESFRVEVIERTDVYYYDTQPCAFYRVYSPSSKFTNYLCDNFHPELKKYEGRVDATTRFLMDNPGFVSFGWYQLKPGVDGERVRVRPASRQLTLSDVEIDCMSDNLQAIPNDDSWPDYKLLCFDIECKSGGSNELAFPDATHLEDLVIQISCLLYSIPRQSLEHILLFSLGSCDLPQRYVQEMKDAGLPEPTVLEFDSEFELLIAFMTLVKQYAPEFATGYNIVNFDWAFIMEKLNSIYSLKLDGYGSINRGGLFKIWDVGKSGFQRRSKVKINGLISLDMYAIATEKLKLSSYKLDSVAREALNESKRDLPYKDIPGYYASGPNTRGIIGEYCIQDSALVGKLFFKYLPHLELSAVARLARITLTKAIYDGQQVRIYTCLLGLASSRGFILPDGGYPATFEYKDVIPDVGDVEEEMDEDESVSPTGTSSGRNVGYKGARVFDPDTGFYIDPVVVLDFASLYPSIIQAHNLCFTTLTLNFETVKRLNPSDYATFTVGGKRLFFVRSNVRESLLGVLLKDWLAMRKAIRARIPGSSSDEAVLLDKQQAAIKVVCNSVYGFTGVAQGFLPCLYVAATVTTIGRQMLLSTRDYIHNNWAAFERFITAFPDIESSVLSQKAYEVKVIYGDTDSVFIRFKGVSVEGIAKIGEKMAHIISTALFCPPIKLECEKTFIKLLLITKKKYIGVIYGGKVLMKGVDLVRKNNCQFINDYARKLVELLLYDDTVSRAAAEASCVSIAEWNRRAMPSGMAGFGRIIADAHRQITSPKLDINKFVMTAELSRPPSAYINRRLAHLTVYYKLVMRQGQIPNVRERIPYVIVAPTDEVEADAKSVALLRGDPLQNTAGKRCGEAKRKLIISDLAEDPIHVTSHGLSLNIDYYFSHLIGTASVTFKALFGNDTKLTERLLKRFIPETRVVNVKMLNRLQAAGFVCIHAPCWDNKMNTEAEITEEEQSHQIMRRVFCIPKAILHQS
Sequence of HSV polymerase (P04293 whole entry): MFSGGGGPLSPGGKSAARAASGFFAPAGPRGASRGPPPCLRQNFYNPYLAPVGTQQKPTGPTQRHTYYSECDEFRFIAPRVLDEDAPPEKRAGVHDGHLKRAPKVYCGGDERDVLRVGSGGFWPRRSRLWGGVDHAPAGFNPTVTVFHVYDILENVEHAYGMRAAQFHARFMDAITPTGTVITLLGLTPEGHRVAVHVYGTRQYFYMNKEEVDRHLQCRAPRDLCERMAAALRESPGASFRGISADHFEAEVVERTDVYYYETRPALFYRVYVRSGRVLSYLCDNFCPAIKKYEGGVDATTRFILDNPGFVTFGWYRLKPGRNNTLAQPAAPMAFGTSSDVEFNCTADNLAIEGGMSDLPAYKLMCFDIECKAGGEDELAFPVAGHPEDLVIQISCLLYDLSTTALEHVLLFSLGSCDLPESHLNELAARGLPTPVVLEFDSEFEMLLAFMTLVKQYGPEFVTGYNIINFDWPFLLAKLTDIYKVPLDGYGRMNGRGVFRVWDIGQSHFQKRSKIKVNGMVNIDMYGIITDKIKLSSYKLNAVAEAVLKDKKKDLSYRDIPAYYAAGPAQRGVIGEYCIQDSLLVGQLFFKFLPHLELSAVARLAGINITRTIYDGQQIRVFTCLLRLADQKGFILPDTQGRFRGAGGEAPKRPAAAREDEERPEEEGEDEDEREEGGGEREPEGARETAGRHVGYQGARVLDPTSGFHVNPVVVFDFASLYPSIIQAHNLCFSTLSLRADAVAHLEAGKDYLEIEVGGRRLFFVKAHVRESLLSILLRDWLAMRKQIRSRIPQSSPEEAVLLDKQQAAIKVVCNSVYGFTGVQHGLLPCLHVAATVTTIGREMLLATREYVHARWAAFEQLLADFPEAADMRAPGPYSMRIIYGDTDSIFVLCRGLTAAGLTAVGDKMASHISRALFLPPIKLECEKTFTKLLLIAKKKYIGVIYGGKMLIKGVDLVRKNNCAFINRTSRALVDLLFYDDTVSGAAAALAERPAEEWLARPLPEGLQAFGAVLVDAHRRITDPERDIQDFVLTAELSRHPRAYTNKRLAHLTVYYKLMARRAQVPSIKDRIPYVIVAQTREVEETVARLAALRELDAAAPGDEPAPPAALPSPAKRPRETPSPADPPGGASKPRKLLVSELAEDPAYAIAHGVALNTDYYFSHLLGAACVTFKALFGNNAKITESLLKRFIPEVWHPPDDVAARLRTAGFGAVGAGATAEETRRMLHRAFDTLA

As to `COC(=O)c1ccc2nnc(C(=O)NCc3ccc(Cl)cc3)c(O)c2c1` [Example 3, Methyl 3-{[(4-chlorobenzyl)amino]carbonyl]-4-hydroxy-6-cinnolinecarboxylate], the melting point lay in the range of 308 to 310 °C. The inhibition at 20 µM at HCMV polymerase worked out at 50%.

`O=C(NCc1ccc(Cl)cc1)c1nnc2ccc(I)cc2c1O` [Comp. 2, N-(4-chlorobenzyl)-4-hydroxy-6-iodo-3-cinnolinecarboxamide] came in with a melting point of 307 to 308 °C. For the same molecule, the inhibition at 20 µM at HCMV polymerase is over 100%.

Regarding `O=C(NCc1ccc(Cl)cc1)c1n[nH]c2ccccc2c1=O` [Comp. 1, N-(4-chlorobenzyl)-4-oxo-1,4-dihydro-3-cinnolinecarboxamide], the melting point was 269 to 271 °C. Also, at VZV polymerase, the inhibition at 20 µM amounted to 10.1%. For the same molecule, the inhibition at 20 µM on HCMV polymerase came out at 90%. The inhibition at 20 µM at HSV polymerase was 20.8%.

Molecule `O=C(NCc1ccc(Cl)cc1)c1nnc2ccc(CO)cc2c1O` [Example 4, N-(4-chlorobenzyl)-4-hydroxy-6-(hydroxymethyl)-3-cinnolinecarboxamide] came in with a melting point of 296 to 298 °C. For the same molecule, at HCMV polymerase, the inhibition at 20 µM turned out to be 51%.

With `O=C(NCc1ccc(Cl)cc1)c1nnc2ccc(CN3CCOCC3)cc2c1O` [Example 5, N-(4-chlorobenzyl)-4-hydroxy-6-(morpholinylmethyl)-3-cinnolinecarboxylate], the melting point is 277 to 280 °C (dec.).
